Measurements: PMC8220418, “A fragment-based approach to assess the ligandability of ArgB, ArgC, ArgD and ArgF in the L-arginine biosynthetic pathway of Mycobacterium tuberculosis” (Computational and Structural Biotechnology Journal, 2021)
Converted amounts (≈) assume the structure as drawn. Read-outs that look alike come from different tables or passages of the source.

How the values were obtained:
ArgC [1] = molecular target: T1, ArgC (Mycobacterium tuberculosis, UniProt P9WPZ9); test: Surface plasmon resonance with immobilised ArgC; assay type: binding
T1 sequence (P9WPZ9 whole entry, the tested form may be a part): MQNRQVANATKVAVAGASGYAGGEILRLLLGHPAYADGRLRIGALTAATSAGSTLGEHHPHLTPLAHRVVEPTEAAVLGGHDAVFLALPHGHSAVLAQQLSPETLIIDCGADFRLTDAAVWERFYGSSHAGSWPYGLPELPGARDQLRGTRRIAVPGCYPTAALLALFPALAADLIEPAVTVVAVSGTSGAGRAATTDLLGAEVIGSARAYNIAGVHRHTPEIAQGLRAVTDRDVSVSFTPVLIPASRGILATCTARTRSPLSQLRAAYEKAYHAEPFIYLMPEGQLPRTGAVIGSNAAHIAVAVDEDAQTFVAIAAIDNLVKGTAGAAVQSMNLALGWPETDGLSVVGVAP
Description: Low molecular weight (LMW) screening with the DSF fragment hits was carried out using the T200 Biacore instrument (GE Healthcare Life Sciences). A series S CM5 sensor chip (GE Healthcare Life Sciences) was used for the immobilisation of ArgC on the carboxymethylated dextran matrix through amine coupling. A 25 μg/mL ArgC dilution was prepared in the optimal coupling buffer (sodium acetate pH 5), and immobilisation was performed by manual instructions. The immobilised ArgC was tested using dilution series (19 μM to 2.5 mM) of NADP^+ and NADPH. 50 mM fragment DMSO stocks were used to prepare 1 mM dilutions in the SPR buffer consisting of 10 mM sodium phosphate pH 7.0, 150 mM NaCl and 2% DMSO (v/v). Each NADP^+/NADPH and fragment dilution was injected once at a flow rate of 30 μL/min for a contact time of 30 s, SPR Running buffer (10 mM sodium phosphate pH 7.0 and 150 mM NaCl) was passed for 320 s at the same flow rate, and 50% DMSO v/v (diluted in SPR running buffer) was injected at the end of the cycle to remove undissociated analyte. Solvent correction was carried out to account for DMSO mismatch between the analyte dilutions and the SPR running buffer.
The fragment hits obtained previously were injected at a concentration of 1 mM. The sensorgrams for all the analytes were inspected visually to exclude fragments with either no discernible response or a “sticky” profile from further analysis (representative sensorgrams for fragment binders are shown in Fig. S2a and b). The binding level was calculated using the T200 software and adjusted for molecular weights of the analytes (Fig. S2c and d). For ArgC, 22 fragments with a binding level response ≥20 RU were shortlisted, whereas in the case of ArgD, 20 fragments with a response ≥10 RU were shortlisted for crystallographic validation. Fragments were thereafter described either as SPR ‘positive’ or ‘negative’.

ArgC [2] = molecular target: T1, ArgC; test: X-ray crystallography of ArgC soaked with fragments (binding site); conditions: crystal soaking
Description: ArgC crystals grown in pH 5.5 were first soaked in 1.5 µL drops containing the mother liquor and 5 mM NADP^+ for 2 h in hanging drops that were equilibrated against a reservoir of 500 µL. Thereafter, the crystals were transferred to drops containing the crystallisation condition and an SPR-validated fragments (20 mM, 10% DMSO), which were equilibrated against 500 µL of mother liquor also containing a corresponding percentage of DMSO overnight at 19 °C. ArgC crystals grown in pH 7 were soaked with 5 mM NADP^+ only for 5–10 min due to the rapid development of cracks, and transferred to the fragment soaking drops for 5–10 min from where they were fished and frozen.
X-ray diffraction data (single-wavelength anomalous diffraction) were collected on beamlines i02, i03, i04, i04-1 and i24 at the Diamond Light Source (DLS), UK and on id30B at The European Synchrotron Radiation Facility (ESRF). Diffraction data were processed and reduced with autoPROC from Global Phasing Limited or Xia2 [31]. The apo-form of ArgB was crystallised in the R3_2 space group with one protomer per asymmetric unit (ASU) and the ArgB:NAG complex in the P6_3 space group with two protomers per ASU. ArgF was crystallized in the P2_1 space group with 6 protomers in the ASU. ArgC was crystallised in C2 and P2_1 space groups, with 2 and 4/8 protomers per ASU respectively. ArgD was crystallised in the P2_1 space group as well but with 4 protomers in the ASU.
Initial phases were determined with PHASER [32] from PHENIX software package using the M. tuberculosis ArgB structure (PDB: 2AP9), M. tuberculosis ArgF structure (PDB: 2P2G), M. tuberculosis ArgC structure (PDB: 2I3G) and E. coli Succinyl-ornithine transaminase (AstC, 42% sequence identity, PDB: 4ADB) as a search models, respectively for ArgB, ArgF, ArgC and ArgD. Model building was done with Coot, and refinement was performed in PHENIX [33], [35] for ArgB, ArgF, and ArgC. For ArgD, after the initial molecular replacement solution and a single cycle of refinement, PHENIX AutoBuild was used to generate a model for M. tuberculosis ArgD that was then refined with Coot and PHENIX. Structure validation was performed using Coot and PHENIX tools, [34]. All figures were prepared with PyMOL (The PyMOL Molecular Graphics System, Version 2.0 Schrodinger, LLC).

ArgC [3] = molecular target: T1, ArgC; test: Differential scanning fluorimetry (DSF) fragment screening against ArgC; assay type: binding; conditions: for DSF ΔTm: 1 mM co-factor, average across all DSF runs; for ΔTm at 5000 µM: fragments at 5 mM, 2.5 μM ArgC
Description: (§1) Fragment screening was carried out in a 96-well PCR plate using a CFX Connect Real-time PCR Detection System (Bio-Rad) for DSF. For ArgB, each 25 μL reaction mixture contained 10 µM ArgB, 100 mM HEPES (pH 7.5), 200 mM NaCl, 5x SYPRO Orange, 5% DMSO (v/v), and fragments at 5 mM. For ArgF each 25 μL reaction mixture contained 5 µM ArgF, 25 mM Tris-HCl (pH 8.0), 150 mM NaCl, 5x SYPRO Orange dye, 5 mM fragments and 5% DMSO (v/v). For ArgC and ArgD, the 25 μL reaction volume consisted of the following: 2.5 μM ArgC/5 μM ArgD, 100 mM sodium phosphate pH 7, 200 mM NaCl, 5x SYPRO Orange, and 5 mM fragments (960 fragment library). The protocol implemented increased temperature by 0.5 °C after every 30 s, going from 25 °C to 95 °C and measuring SYPRO Orange fluorescence for each temperature cycle. The melt curve RFU (relative fluorescence units) and derivative -d(RFU)/dT values were analysed and plotted using a macros-enabled Excel Workbook: the minima of the melt curves were recorded as the melting temperature (Tm) of the enzymes in the presence of each fragment. The Tm of the reference control (protein in the presence of DMSO) was subtracted from all the readings to calculate ΔTm.

ArgF = ArgF (Mycobacterium tuberculosis, UniProt P9WIT9); test: biochemical; assay type: binding; conditions: natural ligands at 1 mM
Sequence of ArgF (P9WIT9 whole entry, the tested form may be a part): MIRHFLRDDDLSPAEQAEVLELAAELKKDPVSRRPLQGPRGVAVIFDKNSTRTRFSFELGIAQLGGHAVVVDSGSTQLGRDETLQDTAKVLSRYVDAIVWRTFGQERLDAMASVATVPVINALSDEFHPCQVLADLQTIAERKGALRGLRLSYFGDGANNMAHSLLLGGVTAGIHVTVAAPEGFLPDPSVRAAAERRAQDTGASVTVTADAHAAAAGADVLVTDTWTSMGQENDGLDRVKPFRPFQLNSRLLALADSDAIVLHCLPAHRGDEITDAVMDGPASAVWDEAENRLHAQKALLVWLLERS
Description: Fragment screening was carried out in a 96-well PCR plate using a CFX Connect Real-time PCR Detection System (Bio-Rad) for DSF. […] For ArgF each 25 μL reaction mixture contained 5 µM ArgF, 25 mM Tris-HCl (pH 8.0), 150 mM NaCl, 5x SYPRO Orange dye, 5 mM fragments and 5% DMSO (v/v). […] The protocol implemented increased temperature by 0.5 °C after every 30 s, going from 25 °C to 95 °C and measuring SYPRO Orange fluorescence for each temperature cycle. The melt curve RFU (relative fluorescence units) and derivative -d(RFU)/dT values were analysed and plotted using a macros-enabled Excel Workbook: the minima of the melt curves were recorded as the melting temperature (Tm) of the enzymes in the presence of each fragment. The Tm of the reference control (protein in the presence of DMSO) was subtracted from all the readings to calculate ΔTm.

ArgB [4] = molecular target: T2, ArgB (Mycobacterium tuberculosis, UniProt P9WQ01); test: Differential scanning fluorimetry (DSF) fragment screening against ArgB; assay type: binding; conditions: known ligands (positive controls); 1 mM for ATP, N-acetyl-glutamate, L-arginine
Description: as §1

ArgD = ArgD (Mycobacterium tuberculosis, UniProt P9WPZ7); test: Differential scanning fluorimetry (DSF) against ArgD; assay type: binding
Sequence of ArgD (P9WPZ7 whole entry): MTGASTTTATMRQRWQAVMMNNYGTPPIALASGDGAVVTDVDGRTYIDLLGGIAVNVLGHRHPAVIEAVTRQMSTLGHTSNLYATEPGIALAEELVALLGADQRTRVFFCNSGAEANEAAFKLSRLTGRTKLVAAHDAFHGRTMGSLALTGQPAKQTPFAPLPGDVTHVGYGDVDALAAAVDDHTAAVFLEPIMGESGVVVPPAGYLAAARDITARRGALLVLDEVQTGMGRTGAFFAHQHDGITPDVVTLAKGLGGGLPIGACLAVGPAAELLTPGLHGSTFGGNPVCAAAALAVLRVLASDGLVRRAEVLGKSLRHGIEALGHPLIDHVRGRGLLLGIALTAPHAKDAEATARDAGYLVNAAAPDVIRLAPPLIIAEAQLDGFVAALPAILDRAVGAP

ArgB [5] = molecular target: T2, ArgB; test: biochemical; assay type: binding; conditions: ITC Kd, six-site sequential binding model, 25 °C, sequential binding, six-site model
[6] = system: M. tuberculosis MDR strain V2475; test: microbe, parasite or virus in culture; assay type: cell-based, Mycobacterium tuberculosis; conditions: Mycobacterium tuberculosis
M. tuberculosis H37Rv = test: microbe, parasite or virus in culture; assay type: cell-based, Mycobacterium tuberculosis
M. tuberculosis ΔargB-c = test: microbe, parasite or virus in culture; assay type: cell-based, Mycobacterium tuberculosis
ArgB [7] = molecular target: T2, ArgB; test: ArgB enzymatic assay (ADP release coupled to NADH oxidation, pyruvate kinase/lactate dehydrogenase); assay type: biochemical; conditions: IC50, 0.5 µM ArgB, 0.3 mM ATP, 1.25 mM NAG, 10% DMSO
Description: ArgB activity was assessed by a colorimetric assay that followed the release of ADP by measuring the oxidation of NADH at 340 nm, for 30 min, in the presence of pyruvate kinase and lactate dehydrogenase in a PHERAstar plate-reader (BMG-Labtech). […]. Inhibitors were also individually screened against the coupled enzymes to eliminate any compounds interfering with the other assay components. Competition assays were performed in the same conditions using 0.3 mM of ATP or NAG and varying the other substrate concentration.

ArgC [8] = molecular target: T1, ArgC; test: ArgC enzymatic assay (NADPH oxidation at 340 nm); assay type: biochemical; conditions: 2 mM fragment, 3.5 μM ArgC, 2.5% DMSO
Description: To synthesise the ArgC substrate, a reaction mixture containing 3 μM ArgB, 1 mM NAG and 1 mM ATP in 50 mM Tris-HCl pH 7.5, 100 mM NaCl and 40 mM MgCl2 was made and the reaction was allowed to proceed for 1–1.5 h at room temperature. Thereafter, 100 μL of the ArgC reaction mixture consisting of 50 mM Tris-HCl pH 7.5, 100 mM NaCl and 0.6 mM NADPH (concentration in 200 μL), was added to each well together with 100 μL of the ArgB reaction mixture and followed for 30 min at 35 °C by measuring the oxidation of NADPH at 340 nm. Controls with only NADPH, 2.5% DMSO (v/v) and no ArgC, as well as only NADPH, 4 mM fragment and no ArgC were prepared. Baseline ArgC activity was assayed with and without DMSO, the effect of 2.5% and 5% DMSO on enzymatic activity was also tested. […] All conditions were prepared in triplicates. 3.5 μM ArgC was added just before measurements were started.

[9] = fragments at 1 mM, adjusted for molecular weight

NC(=O)c1ccc[n+]([C@@H]2O[C@H](COP(=O)([O-])OP(=O)(O)OC[C@H]3O[C@@H](n4cnc5c(N)ncnc54)[C@H](OP(=O)(O)O)[C@@H]3O)[C@@H](O)[C@H]2O)c1 [NADP, reference compound]
SPR Binding Response (ArgC [1]; 1.25 mM): 19.5 (1.25 mM) RU | Binding site (X-ray) (ArgC [2]): Co-factor | DSF ΔTm (ArgC [3]): +0.6 °C | DSF ΔTm (ArgC [3]; listed as NADP^+): ~ 0.6 °C

NC(=O)NCCC[C@H](N)C(=O)O [L-citruline, L-citrulline, reference compound]
ΔTm at 1000 µM (ArgF; read-out: DSF ΔTm): 1 °C

Nc1ncnc2c1ncn2[C@@H]1O[C@H](COP(=O)(O)OP(=O)(O)OP(=O)(O)O)[C@@H](O)[C@H]1O [ATP]
DSF ΔTm (ArgB [4]): +2.0 °C

Cc1ncc(COP(=O)(O)O)c(C=O)c1O [PLP, pyridoxal-5′-phosphate]
Melting temperature of ArgD after addition of PLP (ArgD): 79 °C | ΔTm at 1000 µM (ArgD; PLP (1 mM), PLP-unsaturated ArgD): 13 °C | Melting temperature of ArgD after addition of PLP (ArgD; PLP-unsaturated ArgD + 1 mM PLP): 77.5 °C

NC(N)=NOCC[C@H](N)C(=O)O [L-canavanine, reference compound]
Kd (ArgB [5]; 1st value): 4.5 µM | Kd (ArgB [5]; 2nd value): 4.8 µM | Kd (ArgB [5]; 3rd value): 6.4 µM | Kd (ArgB [5]; 4th value): 34 µM | Kd (ArgB [5]; 5th value): 35 µM | Kd (ArgB [5]; 6th value): 137 µM | MIC [6]: > 200 µg/mL | MIC (M. tuberculosis H37Rv; Mycobacterium tuberculosis, media without arginine): 50 µg/mL (≈ 284 µM) | Inhibitory activity on growth with arginine present (M. tuberculosis H37Rv; arginine (1 mM) in the media): no inhibitory activity | Inhibitory activity on growth with arginine present (M. tuberculosis ΔargB-c): no inhibitory activity | MIC (M. tuberculosis ΔargB-c; Mycobacterium tuberculosis): 50 µg/mL (≈ 284 µM) | ΔTm at 1000 µM (ArgB [4]): 7.2 °C | IC50 (ArgB [7]): 1460 ± 2 µM

CC(=O)N[C@@H](CCC(=O)O)C(=O)O [NAG, N-acetyl-L-glutamic acid]
ΔTm at 1000 µM (ArgB [4]): 8.6 °C

NC(=O)C1=CN([C@@H]2O[C@H](COP(=O)(O)OP(=O)(O)OC[C@H]3O[C@@H](n4cnc5c(N)ncnc54)[C@H](OP(=O)(O)O)[C@@H]3O)[C@@H](O)[C@H]2O)C=CC1 [NADPH, reference compound]
SPR Binding Response (ArgC [1]; 1.25 mM): 16.3 (1.25 mM) RU | Binding site (X-ray) (ArgC [2]): Co-factor | DSF ΔTm (ArgC [3]): −0.9 °C

COc1ccc2oc(C(=O)O)nc2c1 [NMR863, 5-methoxy-1,3-benzoxazole-2-carboxylic acid]
SPR Binding Response (ArgC [1]; [9]): 41.6 RU | inhibition at 2000 µM (ArgC [8]): 12% | Binding site (X-ray) (ArgC [2]): Co-factor | ΔTm at 5000 µM (ArgC [3]): 5 °C

NCCC[C@H](N)C(=O)O [L-ornithine, reference compound]
DSF ΔTm (ArgF): 1.5 °C

COc1ccc2[nH]cc(CC(=O)O)c2c1 [NMR322, 5-Methoxy-3-indoleacetic acid]
SPR Binding Response (ArgC [1]; [9]): 80.5 RU | inhibition at 2000 µM (ArgC [8]): 45% | Binding site (X-ray) (ArgC [2]): Substrate | ΔTm at 5000 µM (ArgC [3]): 3.1 °C

N=C(N)NCCC[C@H](N)C(=O)O [L-arginine]
Kd (ArgB [5]; 1st value): 4.5 µM | Kd (ArgB [5]; 2nd value): 4.8 µM | Kd (ArgB [5]; 3rd value): 6.1 µM | Kd (ArgB [5]; 4th value): 9.4 µM | Kd (ArgB [5]; 5th value): 12.9 µM | Kd (ArgB [5]; 6th value): 42 µM | ΔTm at 1000 µM (ArgB [4]): 11.8 °C | IC50 (ArgB [7]): 146 ± 1 µM

O=C(O)C1c2ccccc2Oc2ccccc21 [NMR571, Xanthene-9-carboxylic acid]
SPR Binding Response (ArgC [1]; [9]): 78.0 RU | inhibition at 2000 µM (ArgC [8]): 37% | Binding site (X-ray) (ArgC [2]): Substrate | ΔTm at 5000 µM (ArgC [3]): 3.1 °C

Nc1ccc(Oc2ccccc2)nc1 [NMR401, 6-phenoxy-3-pyridinamine]
SPR Binding Response (ArgC [1]; [9]): 36.7 RU | inhibition at 2000 µM (ArgC [8]): 10% | Binding site (X-ray) (ArgC [2]): Co-factor | ΔTm at 5000 µM (ArgC [3]): 4.8 °C
